Results as given in PubChem BioAssay AID2060909 (Molecular Pharmacology Branch, DTP, NCI, 2025).

System: 362531-283-R-J2-PDC complex spheroid viability
Assay: Anticancer human tumor 362531-283-R-J2-PDC patient-derived colon adenocarcinoma cell line growth inhibition [RAS]
Details: for IC50: curve of first compound; for viability, T/C: stronger effect = lower value
How it was run: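 Multi-cell-type spheroids: tumor cells plus HUVEC endothelial cells and mesenchymal stem cells. RAS-pathway inhibitors were combined with targeted agents, each dosed in half-log steps down from clinical Cmax, or from 10 microM when Cmax was unknown.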

[1] = second compound 0.0316 µM, first compound 0.0316 µM
[2] = second compound 0.0316 µM, first compound 0.1 µM
[3] = second compound 0.0316 µM, first compound 0.316 µM
[4] = second compound 0.0316 µM, first compound 1 µM
[5] = second compound 0.1 µM, first compound 0.0316 µM
[6] = second compound 0.1 µM, first compound 0.1 µM
[7] = second compound 0.1 µM, first compound 0.316 µM
[8] = second compound 0.1 µM, first compound 1 µM
[9] = second compound 0.316 µM, first compound 0.0316 µM
[10] = second compound 0.316 µM, first compound 0.1 µM
[11] = second compound 0.316 µM, first compound 0.316 µM
[12] = second compound 0.316 µM, first compound 1 µM
[13] = second compound 1 µM, first compound 0.0316 µM
[14] = second compound 1 µM, first compound 0.1 µM
[15] = second compound 1 µM, first compound 0.316 µM
[16] = second compound 1 µM, first compound 1 µM
[17] = second compound 3.16 µM, first compound 0.0316 µM
[18] = second compound 3.16 µM, first compound 0.1 µM
[19] = second compound 3.16 µM, first compound 0.316 µM
[20] = second compound 3.16 µM, first compound 1 µM
[21] = second compound 10 µM, first compound 0.0316 µM
[22] = second compound 10 µM, first compound 0.1 µM
[23] = second compound 10 µM, first compound 0.316 µM
[24] = second compound 10 µM, first compound 1 µM
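Also: spheroids exposed to the agents for 7 days before readout.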
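For viability, T/C in this document: luminescence viability as percent of DMSO vehicle control wells.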

CC(C)NCC(C(=O)N1CCN(c2ncnc3c2C(C)CC3O)CC1)c1ccc(Cl)cc1 (centres undefined) + C#Cc1c(F)ccc2cc(O)cc(-c3ncc4c(N5CC6CCC(C5)N6)nc(OCC56CCCN5CC(F)C6)nc4c3F)c12
IC50 (second compound 0.0316 µM): > 10 µM
IC50 (second compound 0.1 µM): > 10 µM
IC50 (second compound 0.316 µM): > 10 µM
IC50 (second compound 1 µM): > 10 µM
IC50 (second compound 3.16 µM): > 10 µM
IC50 (second compound 10 µM): < 0.0316 µM
viability, T/C [1]: 98.4%
viability, T/C [2]: 100%
viability, T/C [3]: 89.4%
viability, T/C [4]: 102%
viability, T/C (second compound 0.0316 µM, first compound 3.16 µM): 96.7%
viability, T/C (second compound 0.0316 µM, first compound 10 µM): 87.5%
viability, T/C [5]: 84.4%
viability, T/C [6]: 105%
viability, T/C [7]: 94.9%
viability, T/C [8]: 96.6%
viability, T/C (second compound 0.1 µM, first compound 3.16 µM): 102%
viability, T/C (second compound 0.1 µM, first compound 10 µM): 95%
viability, T/C [9]: 94%
viability, T/C [10]: 95.5%
viability, T/C [11]: 92.6%
viability, T/C [12]: 82.4%
viability, T/C (second compound 0.316 µM, first compound 3.16 µM): 83.7%
viability, T/C (second compound 0.316 µM, first compound 10 µM): 65.1%
viability, T/C [13]: 79.9%
viability, T/C [14]: 88.1%
viability, T/C [15]: 78.3%
viability, T/C [16]: 81%
viability, T/C (second compound 1 µM, first compound 3.16 µM): 81.1%
viability, T/C (second compound 1 µM, first compound 10 µM): 75.5%
viability, T/C [17]: 61.5%
viability, T/C [18]: 73.6%
viability, T/C [19]: 66.9%
viability, T/C [20]: 87%
viability, T/C (second compound 3.16 µM, first compound 3.16 µM): 63%
viability, T/C (second compound 3.16 µM, first compound 10 µM): 53.2%
viability, T/C [21]: 43.3%
viability, T/C [22]: 39.6%
viability, T/C [23]: 43.9%
viability, T/C [24]: 47%
viability, T/C (second compound 10 µM, first compound 3.16 µM): 50.6%
viability, T/C (second compound 10 µM, first compound 10 µM): 39.3%

O=C(c1ccc(F)c(F)c1Nc1ccc(I)cc1F)N1CC(O)([C@@H]2CCCCN2)C1 + C#Cc1c(F)ccc2cc(O)cc(-c3ncc4c(N5CC6CCC(C5)N6)nc(OCC56CCCN5CC(F)C6)nc4c3F)c12
IC50 (second compound 0.0316 µM): 0.413 µM
IC50 (second compound 0.1 µM): 0.35 µM
IC50 (second compound 0.316 µM): 0.35 µM
IC50 (second compound 1 µM): 0.181 µM
IC50 (second compound 3.16 µM): 0.0372 µM
IC50 (second compound 10 µM): < 0.00316 µM
viability, T/C (second compound 0.0316 µM, first compound 0.00316 µM): 97.9%
viability, T/C (second compound 0.0316 µM, first compound 0.01 µM): 101%
viability, T/C [1]: 101%
viability, T/C [2]: 88.1%
viability, T/C [3]: 62.9%
viability, T/C [4]: 8.48%
viability, T/C (second compound 0.1 µM, first compound 0.00316 µM): 97.6%
viability, T/C (second compound 0.1 µM, first compound 0.01 µM): 98.4%
viability, T/C [5]: 95.5%
viability, T/C [6]: 72.1%
viability, T/C [7]: 57.6%
viability, T/C [8]: 4.9%
viability, T/C (second compound 0.316 µM, first compound 0.00316 µM): 90.1%
viability, T/C (second compound 0.316 µM, first compound 0.01 µM): 88.1%
viability, T/C [9]: 78.1%
viability, T/C [10]: 66.3%
viability, T/C [11]: 61.3%
viability, T/C [12]: 3.76%
viability, T/C (second compound 1 µM, first compound 0.00316 µM): 82.6%
viability, T/C (second compound 1 µM, first compound 0.01 µM): 78.6%
viability, T/C [13]: 78.2%
viability, T/C [14]: 79.1%
viability, T/C [15]: 22.9%
viability, T/C [16]: 3.27%
viability, T/C (second compound 3.16 µM, first compound 0.00316 µM): 65.4%
viability, T/C (second compound 3.16 µM, first compound 0.01 µM): 60.5%
viability, T/C [17]: 56.5%
viability, T/C [18]: 10.6%
viability, T/C [19]: 9.05%
viability, T/C [20]: 1.7%
viability, T/C (second compound 10 µM, first compound 0.00316 µM): 28%
viability, T/C (second compound 10 µM, first compound 0.01 µM): 31.1%
viability, T/C [21]: 13.9%
viability, T/C [22]: 9.85%
viability, T/C [23]: 6.01%
viability, T/C [24]: 1.71%
